Patent US5234934A, “Aminopropanol derivatives, process for their preparation and pharmaceutical compositions comprising the same” (priority 1989, dated 1993)

Experiments:
[1] = acute toxicity test in mice (Litchfield and Wilcoxon); type: in vivo, mouse; conditions: mouse, in vivo, po., 14 days observation
Description: The test for acute toxicity was carried out by using 10 white mice (CFLP strain) (both male and female), weighing 18 to 22 g in each dose group. The compounds of the invention were administered orally in a dose of 20 ml/kg.
The animals were kept in a plastic box on wood chips in a room of room temperature. They could consume tap water and standard mouse feed ad libitum. The toxicity data were determined by the method of Litchfield and Wilcoxon (Litchfield, J. T., Wilcoxon, F. W.: J. Pharmacol. Exp. Ther. 96, 99/1949/).

[2] = test system: aconitine-induced ECG alterations; test: animal or person; type: in vivo, rat; conditions: Rattus norvegicus; for change in vivo at 4 mg/kg / ED50: iv; for change in vivo at 4 mg/kg / change in vivo at 100 mg/kg: read-out: Effect % (antiarrhythmic); for ED50: read-out: ED50 iv. (antiarrhythmic); for change in vivo at 100 mg/kg: po
Description: The test was carried out by using the modified method of Marmo et al. on rats weighing 160 to 200 g. The animals were narcotised by ethyl uretane (1.2 g/kg ip.). Aconitin was administered intravenously in a dose of 75 /ug/kg in the form of a bolus injection. The ECG alterations were monitored in standard II lead by 5 minutes after the administration of aconitine. The observed alterations were classified into classes 0 to 5. The compounds of the invention were administered 2 minutes or 60 minutes before the parenteral or oral administration of aconitine, respectively. […]
class 1: sometimes an extrasystole occurs class 2: each second one is an extrasystole class 3: extrasystoles in groups class 4: each one is an extrasystole class 5: fibrillation, death
(Marmo, E., DiGiacomo, S., Imperatore, A.: Arzeimittel-Forschung 20, 12/1970/)

[3] = test system: hexobarbital narcosis; test: narcosis potentiating effect (hexobarbital sleeping time); conditions: for ED50: Mus musculus, po, read-out: ED50 (narcosis potentiation); for TI (therapeutic index): narcosis potentiation, mice, po.
Description: The narcosis potentiating effect of the compounds of the invention were examined on white mice, with 6 animals in each group. The mice were administered orally with the compounds of the invention, then both the control and the test groups were intravenously added 40 mg/kg of hexobarbital in order to make the mice sleep (Kaergard et al.).

| SMILES | LD50 at 336 h [1] [mg/kg] | change in vivo at 4 mg/kg [2] [%] | ED50 [3] [mg/kg] | TI (therapeutic index) [3] | ED50 [2] [mg/kg] | change in vivo at 100 mg/kg [2] [%] |
| --- | --- | --- | --- | --- | --- | --- |
| CC(C)(C)NCC(O)CO/N=C1\CCCC\C1=C/c1ccccc1 (racemic) [Example 2, R,S-2-(E)-Phenylmethylene-1-(E)-[3-(1,1-dimethylethyl-amino)-2-hydroxy-propoxyimino]-cyclohexane] | 600 | -43 |  |  |  |  |
| CCCCCCNCC(O)CO/N=C1\CCCC\C1=C/c1ccccc1 (racemic) [Example 3, R,S-2-(E)-Phenylmethylene-1-(E)-(3-hexylamino-2-hydroxy-propoxyimino)-cyclohexane] | > 1000 |  |  |  |  |  |
| COc1ccc(CCNCC(O)CO/N=C2\CCCC\C2=C/c2ccccc2)cc1OC (racemic) [Example 7] | > 1000 |  | 70 | 14 |  |  |
| OC(CO/N=C1\CCCC\C1=C/c1ccccc1)CN1CCCC1 (racemic) [Example 8, R,S-2-(E)-Phenylmethylene-1-(E)-(3-pyrrolidinyl-2-hydroxy-propoxyimino)-cyclohexane] | 800 |  |  |  |  |  |
| OC(CO/N=C1\CCCC\C1=C/c1ccccc1)CN1CCCCC1 (racemic) [Example 9, R,S-2-(E)-Phenylmethylene-1-(E)-(3-piperidinyl-2-hydroxypropoxyimino)-cyclohexane] | 700 |  | 30 | 23 |  |  |
| CC(C)N(CC(O)CO/N=C1\CCCCC\C1=C/c1ccccc1)C(C)C (racemic) [Example 14, R,S-2-(E)-Phenylmethylene-1-(E)-{3-[bis-(1-methylethyl)-amino]-2-hydroxy-propoxyimino}-cycloheptane] | 900 | -83 | 80 | 11 | 1.64 |  |
| C#CC(C)(C)NCC(O)CO/N=C1\CCCCC\C1=C/c1ccccc1 (racemic) [Example 16, R,S-2-(E)-Phenylmethylene-1-(E)-[3-(1,1-dimethylpropin-2-yl)amino-2-hydroxy-propoxyimino]-cycloheptane] | > 1000 |  |  |  |  |  |
| CN1CCN(CC(O)CO/N=C2\CCCCC\C2=C/c2ccccc2)CC1 (racemic) [Example 17, R,S-2-(E)-Phenylmethylene-1-(E)-[3-(4-methyl-1-piperazinyl)-2-hydroxy-propoxyimino]-cycloheptane] | > 1000 |  |  |  |  |  |
| CC(C)N(CC(O)CO/N=C1\CCCCCC\C1=C/c1ccccc1)C(C)C (racemic) [Example 19, R,S-2-(E)-Phenylmethylene-1-(E)-{3-[bis(1-methylethyl)-amino]-2-hydroxy-propoxyimino}-cyclooctane] | 800 | -76 | 26 | 31 | 3.29 |  |
| CC(C)(C)NCC(O)CO/N=C1\CCC\C1=C/c1ccccc1 (racemic) [Example 22, R,S-2-(E)-Phenylmethylene-1-(E)-[3-(1,1-dimethylethylamino)-2-hydroxy-propoxyimino]-cyclopentane] | 900 |  |  |  |  |  |
| CC(C)(C)NCC(O)CO/N=C1\CCCC\C1=C/c1ccccc1Cl (racemic) [Example 23, R,S-(E)-(2-Chlorophenyl-methylene)-1-(E)-[3-(1,1-dimethylethylamino)-2-hydroxy-propoxyimino]-cyclohexane] | 130 | -83 | 16 | 8 | 0.36 |  |
| OC(CNC1CC1)CO/N=C1\CCCC\C1=C/c1ccc(Cl)cc1 (racemic) [Example 27, R,S-2-(E)-(4-Chlorophenyl-methylene)-1-(E)-(3-cyclopropylamino-2-hydroxy-propoxyimino)-cyclohexane] | ~1000 |  | 35 | 29 |  |  |
| CC(C)NCC(O)CO/N=C1\CCCC\C1=C/c1ccc(Cl)cc1 (racemic) [Example 28, R,S-2-(E)-(4-Chlorophenyl-methylene)-1-(E)-[3-(1-methylethylamino)-2-hydroxy-propoxyimino]-cyclohexane] | 1500 |  | 75 | 20 |  |  |
| CC(C)(C)NCC(O)CO/N=C1\CCCC\C1=C/c1ccc(Cl)cc1 (racemic) [Example 31, R,S-2-(E)-(4-Chlorophenyl-methylene)-1-(E)-[3-(1,1-dimethylethylamino)-2'-hydroxy-propoxyimino]-cyclohexane] | ~1000 |  |  |  |  |  |
| CCCN(CCC)CC(O)CO/N=C1\CCCC\C1=C/c1ccc(Cl)c(Cl)c1 (racemic) [Example 34, R,S-2-(E)-(3,4-Dichlorophenyl-methylene)-1-(E)-(3-/bis-n-propyl/-amino-2-hydroxy-propoxyimino)-cyclohexane] | > 1000 |  | 145 | > 7 |  |  |
| CCCNCC(O)CO/N=C1\CCCC\C1=C/c1c(Cl)cccc1Cl (racemic) [Example 35, R,S-2-(E)-(2,6-Dichlorophenyl-methylene)-1-(E)-(3-propylamino-2-hydroxy-propoxyimino)-cyclohexane] | 600 | -100 | 11.5 | 52 | 1.84 |  |

| SMILES | LD50 at 336 h [1] [mg/kg] | change in vivo at 4 mg/kg [2] [%] | ED50 [3] [mg/kg] | TI (therapeutic index) [3] | ED50 [2] [mg/kg] | change in vivo at 100 mg/kg [2] [%] |
| --- | --- | --- | --- | --- | --- | --- |
| COc1ccccc1/C=C1\CCCC\C1=N/OCC(O)CN1CCOCC1 (racemic) [Example 37, R,S-2-(E)-(2-Methoxyphenyl-methylene)-1-(E)-(3-morpholinyl-2-hydroxy-propoxyimino)-cyclohexane] | > 1000 |  | 50 | > 20 |  |  |
| COc1cccc(/C=C2\CCCC\C2=N/OCC(O)CN2CCN(Cc3ccccc3)CC2)c1 (racemic) [Example 39, R,S-2-(E)-(3-Methoxyphenyl-methylene)-1-(E)-{3-[(4-phenylmethyl)-1-piperazinyl]-2-hydroxy-propoxyimino}-cyclohexane] | > 1000 |  |  |  |  |  |
| COc1ccc(/C=C2\CCCCC\C2=N/OCC(O)CNC2CC2)cc1 (racemic) [Example 42, R,S-2-(E)-(4-Methoxyphenyl-methylene)-1-(E)-(3-cyclopropylamino-2-hydroxy-propoxyimino)-cycloheptane] | > 1000 |  | 14.5 | > 69 |  |  |
| CCCCNCC(O)CO/N=C1\CCCCCC\C1=C/c1ccccc1 (racemic) [Example 49, R,S-2-(E)-Phenylmethylene-1-(E)-(3-butylamino-2-hydroxypropoxyimino)-cyclooctane] | > 1000 |  |  |  |  |  |
| COc1ccc(/C=C2\CCCCC\C2=N/OCC(O)CNC(C)C)cc1 (racemic) [Example 50, R,S-2-(E)-(4-Methoxyphenyl-methylene)-1-(E)-/3-(1-methylethylamino)-2-hydroxy-propoxyimino/-cycloheptane] | 1000 |  |  |  |  |  |
| OC(CO/N=C1\CCCC\C1=C/c1ccccc1)CN1CCN(c2cccc(Cl)c2)CC1 (racemic) [Example 52, R,S-2-(E)-Phenylmethylene-1-(E)-{3-[4-(3-chlorophenyl)-1-piperazinyl]-2-hydroxy-propoxyimino}-cyclohexane] | > 1000 |  |  |  |  |  |
| OC(CO/N=C1\CCCC\C1=C/c1ccccc1)CN1CCN(c2cccc(C(F)(F)F)c2)CC1 (racemic) [Example 53, R,S-2-(E)-Phenylmethylene-1-(E)-3-[4-(3-trifluoromethyl)-phenyl-1-piperazinyl]-2-hydroxy-propoxyimino-cyclohexane] | > 1000 |  |  |  |  |  |
| OC(CO/N=C1\CCCC\C1=C/c1ccccc1)CN1CCC(Cc2ccccc2)CC1 (racemic) [Example 54] | 600 | -56 |  |  | 3.47 |  |
| O=C(OC(CO/N=C1\CCCCCC\C1=C/c1ccccc1)CN1CCOCC1)c1ccccc1 (racemic) [Example 69, R,S-2-(E)-Phenylmethylene-1-(E)-[3'-(4-morpholinyl)-2'-benzoyloxy-propoxyimino]-cyclooctane] | > 1000 |  |  |  |  |  |
| CNC1=Nc2ccc(Cl)cc2C(c2ccccc2)=[N+]([O-])C1 [Chlordiazepoxide, reference compound] |  |  | 10 | 62 |  |  |
| COc1ccc([C@@H]2Sc3ccccc3N(CCN(C)C)C(=O)[C@@H]2OC(C)=O)cc1 [Dilthiazem, reference compound] |  | -27 |  |  |  |  |
| CCCC(C)(COC(N)=O)COC(N)=O [Meprobamate, reference compound] |  |  | 260 | 4.2 |  |  |
| Cc1cccc(C)c1OCC(C)N (centres unmarked) [Mexiletine, reference compound] |  | -21 |  |  |  |  |
| CC(C)NCC(O)COc1cccc2[nH]ccc12 (centres unmarked) [Pindolol, reference compound] |  |  |  |  |  | -52 |
| CC(C)NCC(O)COc1cccc2ccccc12 (centres unmarked) [Propranolol, reference compound] |  | -7 |  |  | 5.81 | -50 |
